# Assay results: patent publication US20180045715A1, “STRUCTURE AND FUNCTION OF THE SALICYCLIC ACID BINDING SITES ON HUMAN HMGB1 AND METHODS OF USE THEREOF FOR THE RATIONAL DESIGN OF BOTH SALICYCLIC ACID DERIVATIVES AND OTHER AGENTS THAT ALTER ANIMAL AND PLANT HMGBS ACTIVITIES” (Boyce Thompson Institute for Plant Research, Inc., priority 2015, published 2018)
# Residue numbers refer to the chain shown, from its start.
# What was measured:
# full-length HMGB1 = target: T1, full-length HMGB1 (Homo sapiens, UniProt P09429); test: Saturation transfer difference (STD) NMR; format: binding
# T1 construct: (i) full length: residues 2-215; hexaHis (TEV-cleavable) (N, cleaved yes); made in house
# T1 sequence (P09429 2-215): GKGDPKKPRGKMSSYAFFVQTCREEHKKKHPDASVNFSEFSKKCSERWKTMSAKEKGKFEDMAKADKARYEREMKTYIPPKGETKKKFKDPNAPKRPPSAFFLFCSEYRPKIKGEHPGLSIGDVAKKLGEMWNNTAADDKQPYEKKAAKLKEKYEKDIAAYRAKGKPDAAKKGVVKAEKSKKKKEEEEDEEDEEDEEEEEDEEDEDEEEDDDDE
# From the text: NMR can be used to detect protein ligand interactions either by protein-detected experiments (Lepre, Moore et al. 2004), detecting changes in the frequencies of resonances of the protein sample due to ligand binding (protein-detected chemical shift perturbation (CSP) experiments), or by ligand-detected experiments (Lepre, Moore et al. 2004), in which NMR properties of the ligands due to ligand-protein interactions are detected. Protein-detected ligand binding experiments are usually done using isotope-enriched protein samples which can be studied by isotope-filtered NMR experiments, including for example ^15N-^1H-HSQC (Kay, Keifer et al. 1992). Ligand-detected experiments include the Waterlogsy experiment (Meyer and Peters 2003, Lepre, Moore et al. 2004, Furihata, Shimotakahara et al. 2008), which detects interactions in the ternary complex formed by the protein, the ligand, and one or more water molecules, and the Saturation Transfer Difference (STD) NMR experiments (Mayer and Meyer 2001, Lepre, Moore et al. 2004, Wang, Liu et al. 2004), which detects magnetization transfer from the protein to the ligand in the protein-ligand complex. The Waterlogsy experiment is a more sensitive experiment, typically employed to detect qualitatively if there is an interaction between protein and ligand. […]
# [1] = target: T2, full-length (FL) R24A/K28A HMGB1 (Homo sapiens, UniProt P09429, K28A/R24A); test: 15N-1H HSQC NMR binding to R24A/K28A HMGB1; settings: ~0.1 mM protein; 15 mM SA, 3 mM ac3AESA or 3 mM amorfrutin B1
# T2 construct: (i) full length: residues 2-215; made in house
# T2 sequence (P09429 2-215 R24A/K28A): T1 sequence (P09429 2-215) with R23A, K27A
# Procedure: […] Samples were analyzed with and without SA or other candidate inhibitors at 25° C. Chemical shift perturbation studies were carried out using either a Bruker Avance 800 MHz Avance NMR system with 4-mm NMR tubes, or using a Bruker Avance 600 MHz NMR spectrometer equipped with a 1.7 mm micro cryoprobe. 1024 or 2048 complex points were acquired for each of 80 to 200 increments in the ^15N dimension with a recycle delay of 1 s. Each spectrum was typically acquired for 2-8 hrs. Chemical shift assignments were determined using a uniformly ^13C,^15N-enriched HMGB1-ΔC construct at 25° C. via traditional triple-resonance NMR experiments (Biamonti et al., 1994; Moseley et al., 2001) recorded on a Bruker 800 MHz NMR spectrometer equipped with a 5 mm cryoprobe. Disulfide oxidation studies were carried out using the ^15N-^1H SOFAST-HMQC NMR experiment (Schanda & Brutscher, 2005; Schanda et al., 2005; Zandarashvili et al., 2013).
# An alternative explanation is that SA, at low concentrations, affects another factor in vivo, which results indirectly in suppression of HMGB1^RE-induced chemotaxis. […] Therefore, these residues were mutated to Ala to form the double mutant Arg24Ala/Lys28Ala (R24A/K28A).
# R50A/K54A mutant AtHMGB3 = target: T3, R50A/K54A mutant AtHMGB3 (Arabidopsis thaliana, UniProt P93047, K54A/R50A); test: MAPK activation assay with mutant R50A/K54A AtHMGB3; settings: in vivo
# T3 construct: providing a full length Arabidopsis thaliana HMGB1 or HMGB3 (AtHMGB1 or AtHMGB3) protein; made in house
# T3 sequence (P93047 whole entry R50A/K54A): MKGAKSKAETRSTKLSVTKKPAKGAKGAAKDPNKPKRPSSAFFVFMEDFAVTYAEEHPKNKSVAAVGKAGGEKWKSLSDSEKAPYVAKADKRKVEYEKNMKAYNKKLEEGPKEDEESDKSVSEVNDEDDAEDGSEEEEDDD
# Procedure: To detect the phosphorylation of Arabidopsis MAPKs (MPK3/4/6), 3 to 4 week-old soil grown Arabidopsis leaves were infiltrated with 1 μM AtHMGB3 or 1 μM Pep1 peptide ([…]; synthesized by GenScript USA Inc.). […] Proteins were extracted using lacus buffer (25 mM Tris-HCl, pH 7.5, 15 mM MgCl2, 15 mM EGTA, 75 mM NaCl, 1 mM DTT, 0.1% NP-40, 5 mM p-nitrophenylphosphate, 60 mM β-glycerophosphate, 0.1 mM […], 1 mM NaF, 1 mM PMSF, 5 μg/ml leupeptin, 5 μg/ml aprotinin), and then centrifuged at 15,000 g for 10 min at 4 ° C. to remove cell debris.
# Thus, these residues (R50 and K54) were mutated to Ala, and the resulting mutant AtHMGB3 tested for its ability to activate MPK3/6 and induce callose deposition in the absence or presence of SA. The R50A/K54A mutant AtHMGB3 retained its ability to activate MPK3/6 and induce callose deposition, but inhibition of these activities by SA was lost (FIG. 7H,I and FIG. 8).
# COX = settings: cited from earlier work
structure (smiles),measurement,setting,value
"O=C(O)c1ccccc1O [SA, salicylic acid]",STD signal for binding to full-length HMGB1,"full-length HMGB1; 20 μM HMGB1, pH 7.4, SA 6 mM, ac3AESA 0.6-5.8 mM",no STD signal is detected
same,ligand concentration at which an STD effect for HMGB1 binding is seen,"full-length HMGB1; 20 μM HMGB1, SA tested as high as 6 mM",no STD effect
same,binding to R24A/K28A HMGB1 (CSPs in HSQC),[1],does not bind
same,inhibition by SA of MPK3/6 activation by R50A/K54A AtHMGB3,R50A/K54A mutant AtHMGB3,lost
same,"IC50, inhibition of COX activity in vitro","COX; literature (Mitchell et al., 1997; Vane, 1971)",> 100 mg/L
same,IC50,"COX; literature, conversion in parentheses, read-out: IC50, inhibition of COX activity in vitro",> 500 µM
